# Data reported in patent US20260240820A1, “METHOD FOR CONTROLLING MEMBRANE POTENTIAL-DEPENDENT ION CHANNEL THROUGH TYPE I TASTE RECEPTORS (T1RS)” (ION CHAT RESEARCH CORPORATE, priority 2022, published 2026).
# Entries after “also recorded” stand apart in the source; their conditions may differ. Where two headings read alike, the source gives them in different places.
# Experiments:
# [1] = test system: endogenous T1R GPCR of HEK cells; assay: Intracellular calcium (Cal-520) in HEK cells stably expressing Nav1.1 with endogenous T1R GPCR; type: cell-based, human; conditions: 10 nM then 20 nM for Aβ1-40 and Aβ1-42
# How it was run: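 Nav1.1-expressing HEK cells were loaded with Cal-520 (60 min at 37° C, then 30 min at room temperature) and intracellular calcium was imaged by fluorescence microscopy. Aβ1-40 or Aβ1-42 was applied at 10 nM, then 20 nM after 5 minutes. Values are mean ± stderr of maximum (Aβ1-40, 6 groups) or minimum (Aβ1-42, 12 groups) fluorescence response from two experiments.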
# [2] = test system: Nav1.5; assay: Patch-clamp (voltage clamp) recording of VGSC current in HEK cells stably expressing Nav1.5; conditions: for Effect on VGSC current enhanced by Aβ42/40 (AD-D): applied after Aβ42/40 (AD-D)
# [3] = test system: HUEhT-1 cells; assay: Cell morphology observation, HUEhT-1 umbilical vein endothelial cells; type: cell-based, human; conditions: Aβ1-40 at 12.5 nM
# From the text: (§1) In a previous implementation example (FIG. 54), it was shown that Aβ peptides and artificial sweeteners cause depolymerization of the cytoskeleton. […] To easily compare and confirm the morphological changes before and after the application of Aβ1-40, the areas of interest were circled with dashed lines. Observations were made using bright-field microscopy. Images were captured with a camera (UI-3880CP-M) from IDS mounted on the microscope, and the images were imported to a PC using the software that came with the camera. Further image processing was done using ImageJ (Rasband, 1997-2018).
# [4] = test system: Nav1.5 in T1R3-silenced HEK cells; assay: VGSC current in HEK Nav1.5 cells with silenced T1R3; type: cell-based, human; conditions: for Effect on VGSC current: 20 μM (b565)
# How it was run: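 VGSC currents were recorded in HEK-Nav1.5 cells with T1R3 knocked down by a miRNA expression vector, stimulated every 8 s. The effect of Aβ25-35 peptide was compared with control HEK-Nav1.5 cells.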
# [5] = test system: Nav1.6; assay: Patch-clamp recording of VGSC current in HEK (Nav1.6) cells; type: cell-based, human
# From the text: The cells used in the previous (18-1) experiment were cardiac-type VGSC cells. In this experiment, HEK (Nav1.1) and HEK (Nav1.6) cells, which are considered neuronal VGSC cells, were created. The effects of four peptides—Aβ25-35, Aβ1-38, Aβ1-40, and Aβ1-42—were examined using the same experimental protocol as in (18-1). […]
# [6] = test system: Nav1.1; assay: Patch-clamp recording of VGSC current in HEK (Nav1.1) cells; type: cell-based, human
# From the text: The cells used in the previous (18-1) experiment were cardiac-type VGSC cells. In this experiment, HEK (Nav1.1) and HEK (Nav1.6) cells, which are considered neuronal VGSC cells, were created. The effects of four peptides—Aβ25-35, Aβ1-38, Aβ1-40, and Aβ1-42—were examined using the same experimental protocol as in (18-1).
# [7] = test system: HEK cells; assay: Cell morphology observation (bright-field), HEK cells; type: cell-based, human
# From the text: as §1
# The solution (HHBS*) was adjusted to achieve the final concentration values shown in Table 11 for Aβ42/40, and the changes in cell morphology were observed. Indicators included cell body contraction, extension, or the presence of lamellipodia ruffling around the cell periphery.
# [8] = test system: T1R3 inherent in HEK cells; assay: Impedance of HEK Nav1.5 cell sheet; type: cell-based, human
# Experimental: Specifically, cells were cultured on a conductive glass (FTO glass, thickness 2.2 mm) electrode plate to form a sheet, and the change in impedance value of the cell sheet was measured by applying current stimulation between the conductive glass covered with cells and the extracellular solution. The measurement experiment was conducted using the voltage-clamp method. A voltage pulse of 1 mV (1 Hz, 220 ms width) was applied between the silver chloride electrode placed in the extracellular solution and the electrode plate, and the change caused by the amyloid peptide was measured as a change in current (I).
# By measuring the current response (I) occurring there, the resistance ® of the entire cell sheet to the applied voltage (1 mV) can be calculated from Ohm's law (V=IR>R=V/I). As shown in (FIG. 46), it was confirmed that the T1R3 antibody inhibits the effect of Aβ1-40 peptide.
# [9] = test system: HEK Nav1.5 cells; assay: GFP-Tubulin / GFP-Actin cytoskeleton observation in HEK Nav1.5 cells; type: cell-based, human
# From the text: To observe the impact of cinacalcet and Aβ1-42 peptide on microfilament (actin) fiber structures, we labeled cells with GFP-Actin (FIG. 34). […] This experimental approach, using GFP-Tubulin, GFP-Actin, or other fluorescent proteins to label microtubules and microfilaments, can be used to screen compounds that regulate the activity of ion channels and neuronal function-controlling proteins. Additionally, simultaneous labeling of tubulin and actin can be achieved using fluorescent antibodies or phalloidin after cell fixation.
# [10] = test system: VGSC; assay: Patch-clamp recording of VGSC current, cell type not specified or several cell types (summary statements); type: cell-based, human
# [11] = when used for treatment of hypercalcemia; cited from earlier work
# [12] = test system: voltage-dependent potassium channel current of SH-SY5Y cells; assay: Voltage clamp recording of outward potassium current in SH-SY5Y cells; type: cell-based, human; conditions: 5 μM
# From the text: The inward current represents the transient peak observed immediately after stimulation, while the outward current measures the average value during the last 50 ms of rectangular pulse stimulation.
# [13] = test system: SH-SY5Y cells; assay: Action potentials of differentiated SH-SY5Y cells (current clamp, NanoCharge method); type: cell-based, human; conditions: pH6; current clamp
# Experimental: Next, using the current-clamp mode, we applied current stimulation and recorded action potentials from differentiated SH-SY5Y cells (FIG. 5, from the lower to the upper part of the figure, rectangular wave current stimulation was applied. The current strengths were 6, 8, 10, and 12 pA from the bottom). Before the application of Aβ25-35 peptide, action potentials were not induced at stimulation currents of 6 pA and 8 pA, but action potentials were recorded at stronger stimulation currents (10 pA and 12 pA).
# By using magnetic conductive nanoparticles as intracellular electrodes for measuring the neuronal action potentials of differentiated SH-SY5Y cells, and combining this with a capacitive potential detection device to measure changes in intracellular potentials, the spontaneous action potentials of these cells were measured. Specifically, 6.25 nM of the T1R3 agonist Aβ25-35 peptide was added to 400 μl of SH-SY5Y cell culture medium, and the spontaneous action potentials before and after the addition of Aβ25-35 peptide were measured to observe the changes.
# This membrane potential recording method focuses on the magnetic conductive nanoparticles penetrating the cell membrane, the cover glass on which the cells are seeded, and the electrode placed below the cover glass forming a capacitor. The charge (Q) charged to this capacitor is recorded as the membrane potential in terms of charge rather than voltage changes. Since the charge (Q) is obtained from Q=CV, where C is the capacitance and V is the potential, the charge changes measured here are influenced by the capacitor (C) (FIG. 43).
# [14] = test system: VGSC of SH-SY5Y cells (Nav1.7, Nav1.2, Nav1.3); assay: Patch-clamp recording of VGSC current in differentiated SH-SY5Y cells; type: cell-based, human; conditions: 5 μM
# From the text: Furthermore, the inventors focused on the relationship between taste receptors, particularly the sweet or umami receptors containing the T1R3 subunit, which are widely expressed in the brain and nervous system, including the hippocampus and cortex. They used human neuroblastoma cells (SH-SY5Y) that functionally express Nav1.2, Nav1.3, and Nav1.7 (as reported in non-patent literature 8), as well as HEK cells stably expressing Nav1.5 (with endogenous expression of T1R1, T1R2, and T1R3). They observed the effects of taste stimuli on sodium channel activation. By reducing the expression of T1R1 and T1R3 genes using silencing vectors, they confirmed that the effects on sodium channel currents induced by taste stimuli act through taste receptor GPCRs.
# The SH-SY5Y cell culture medium was prepared by mixing DMEM (Sigma-Aldrich) and F-12 (Sigma-Aldrich) in equal proportions. To induce neuronal-like differentiation, the medium contained 1% FBS (BioWest), 5% 40 mM L-Glutamine (Fuji Film), and 1% MEM non-essential amino acids (Wako Pure Chemical Industries). During differentiation, SH-SY5Y cells were cultured for at least 5 days with the addition of 10 μM/ml retinoic acid (Fuji Film). In this document, “SH-SY5Y cells” refer to the SH-SY5Y cell line differentiated into neuronal-like cells.
# [15] = test system: VGSC of NG108-15 cells; assay: Whole-cell patch-clamp of VGSC current in differentiated NG108-15 cells; type: cell-based, mouse/rat; conditions: subsequent application
# From the text: Specifically, we used mouse/rat hybridoma cells NG108-15 differentiated into neuronal-like cells using forskolin and low-concentration FBS treatment, along with human-derived cells expressing human Nav1.5. We recorded VGSC currents using the whole-cell patch-clamp method and observed the effects of Aβ peptides (FIG. 58A-1, B). The term “Aβ peptides” here refers to a mixture of Aβ40 and Aβ42. We used two types of mixtures similar to those used in the experiments on cell morphology and lamellipodia dynamics. One mixture corresponds to the Aβ42/40 ratio observed in cerebrospinal fluid from healthy individuals (NDC: non-demented control), and the other corresponds to the ratio observed in cerebrospinal fluid from Alzheimer's disease patients with cognitive impairment (AD-D).
# [16] = test system: SH-SY5Y cells; assay: Cell morphology observation, SH-SY5Y cells; type: cell-based, human; conditions: neuron-like differentiated SH-SY5Y cells
molecule,measurement,setting,value
"Aβ1-40: amyloid β peptide, Sequence No. 3",Change in intracellular calcium,[1],increased intracellular calcium levels; also recorded: continued to slowly increase
same,Effect on VGSC current amplitude,[2],reduced VGSC currents for both prepulse potentials
same,Shift of steady-state inactivation (S-S) curve of VGSC,[2],to the left; also recorded: more towards the hyperpolarizing direction
same,Change in cell morphology,[3],a decrease in cell area/volume
same,Change in cell morphology,[3]; listed as Aβ40,significant cell body contraction (atrophy)
same,Effect on VGSC in T1R3-silenced cells,[4],is lost
same,Effect on VGSC current,[5],VGSC enhancement
same,Effect on VGSC current,[6],VGSC enhancement
same,Change in cell morphology,[7]; Aβ1-40 at 12.5 nM,a decrease in cell area/volume
same,Change of impedance of cell sheet,[8],decrease in impedance
C[C@@H](NCCCc1cccc(C(F)(F)F)c1)c1cccc2ccccc12 [Cinacalcet],Microfilament structure (GFP-Actin),[9],condensed GFP-Actin structures
same,Effect on VGSC (Na+) current under acidic conditions,"[2]; 5 μM, pH 6",gradually inhibited; also recorded: exhibited VGSC inhibition
same,Effect on VGSC currents,"[2]; 20 μM, control HEK Nav1.5 cells",completely inhibits VGSC currents
same,Effect on leak (baseline) current,[2]; when VGSC inhibition nearly complete,reduced leak currents
same,Effects on VGSCs,[10],Inhibition of VGSCs
same,Effect on VGSC activity,[10]; 5 μM,completely inhibits VGSC activity
same,Inhibitory effect on VGSC when tubulin polymerization is inhibited by Colchicine,[10]; Colchicine treated cells,still inhibited VGSC currents
same,Inhibitory effect on VGSC when actin polymerization is inhibited by Cytochalasin D,[10]; Cytochalasin D treated cells,inhibited by cytochalasin D treatment
same,Required concentration for VGSC inhibition,[10]; HEK Nav1.5 and SH-SY5Y,5 µM
same,Effects on VGSCs,[10]; listed as cinacalcet,inhibited human VGSC
same,Effect on VGSC current,[4],no change in VGSC current was observed
same,Effect on VGSC current,[4]; listed as cinacalcet,no observable effect
same,Effect on VGSC in T1R3-silenced cells,[4]; listed as cinacalcet,no VGSC inhibitory effect was observed; also recorded: T1R3 silencing nullifies ab25-35's
same,Plasma concentration,[11],50 nM
same,Effect on outward potassium current,[12],inhibited
same,Effect on outward potassium current,[12]; listed as cinacalcet,complete inhibition of both currents
same,Effect on VGSC-dependent action potentials under acidic conditions,[13],inhibited VGSC-dependent action potentials
same,Effect on inward VGSC current,[14],inhibited
same,Effect on inward VGSC current,[14]; listed as cinacalcet,complete inhibition of both currents
NCCC(=O)O [β-alanine],Effect on VGSC current after Aβ42/40 (AD-D),[15],did not cause any further changes
same,Effect on VGSC current enhanced by Aβ42/40 (AD-D),[2],reversed; also recorded: reverse the enhancement of VGSC current; also recorded: nearly returned to the control level
same,Effect on VGSC current enhanced by Aβ42/40 (AD-D),[2]; listed as D-alanine,nearly restoring it to control levels
same,Lamellipodia activity,[16],enhances lamellipodia activity
same,Effect on cell motility,[7]; 5 μM,promotes cell motility
same,Effect on cells contracted and inactive due to Aβ AD,"[7]; HEK cells, data not shown",induces activity in cells
